From patent publication US8952033B2, “4-anilinofuro[2,3-b]quinoline derivatives, their preparation processes, and pharmaceutical compositions comprising the same” (Kaohsiung Medical University, priority 2011, dated 2015)
In brackets after ≈: the same amount, converted by molar mass. Marks after values point to notes of the source that are not given here.

Key:
[1] = tested on: NCI-H460 (non-small cell lung carcinoma cell); assay: MTT antiproliferative assay (cell growth %, GI50), NCI-H460; assay type: cell-based; conditions: Homo sapiens, NCI-H460, 48 hours, MTT; for activity at 4000 µg/mL: 4 mg/ml; for activity at 20000 µg/mL: 20 mg/ml
Protocol: (§1) Antiproliferative activities of the compounds of this invention were evaluated substantially according to the method as described in Tseng, C. […] The cells were treated with the test compounds, i.e., the compounds of this invention (in dimethylsulfoxide (DMSO)), or DMSO for 48 hours.
(§2) Before and after the treatment with the test compounds or DMSO, 3-(4,5-dimethylthiazol-2-yl)-2,5-diphenyltetrazolium bromide (MTT, 2 mg/mL, 100 μL) was added to each of the cultures, followed by cultivation for 2 hours. The resultant formazan was dissolved by the addition of DMSO. Absorbance at 570 nm (OD570) was measured using a microtiter plate reader (Dynex MRX-II).
(§3) Determination of GI50 was conducted thrice for each test compound. GI50 is expressed as mean±SD.

[2] = in vitro anticancer assay, earlier work of the applicants; cited from earlier work
[3] = Single-dose pharmacokinetic analysis in CD-1 mice; assay type: in vivo
Protocol: CD-1 mice were divided into two groups. The first group of mice (n=9) were used to assess the singe-dose pharmacokinetics of the test compounds after intravenous administration, and the second group of mice (n=9) were utilized to assess the singe-dose pharmacokinetics of the test compounds after oral administration. All of the mice were fasted from 4 hours before the administration of the test compounds until 4 hours after the administration of the test compounds.
The assessment for singe-dose pharmacokinetics of the test compounds after intravenous administration was performed as follows. The first group of mice were further randomly divided into three subgroups including compound 13a group (n=3), compound 14a group (n=3), and compound 1 group (n=3). Compounds 13a, 14a, 1 (in polyethylene glycol 400/ethanol/water (30/5/65, v/v/v)) were respectively administered to the mice in compound 13a group, compound 14a group, and compound 1 group at a dose of 2 mg/kg via tail vein injection. Blood samples (0.25 mL) were collected from the mice by virtue of cardiac puncture right before the intravenous administration, and at 2 min, 5 min, 15 min, 30 min, 1 hr, 1.5 hr, 2 hr, 4 hr, 6 hr, 9 hr, 24 hr, and 27 hr after the intravenous administration.
The assessment for singe-dose pharmacokinetics of the test compounds after oral administration was conducted as follows. The second group of mice were further randomly divided into three subgroups including compound 13a group (n=3), compound 14a group (n=3), and compound 1 group (n=3). Compounds 13a, 14a, 1 (in 0.5% methylcellulose) were respectively administered to the mice in compound 13a group, compound 14a group, and compound 1 group at a dose of 20 mg/kg via tube feeding. Blood samples (0.25 mL) were collected from the mice by virtue of cardiac puncture right before the oral administration, and at 15 min, 30 min, 1 hr, 1.5 hr, 2 hr, 4 hr, 6 hr, 9 hr, 24 hr, and 27 hr after the oral administration.
Each of the blood samples was placed in a 0.5 mL Microtainer® tube containing anticoagulant EDTA-K2, followed by mixing evenly. Centrifugation at 7000 g and 4° C. was conducted for 5 minutes. Plasma was collected and was mixed uniformly with a proper amount of acetonitrile, followed by centrifugation. The resultant supernatant was acquired, and was injected into a reversed-phase Biosil ODS column so as to determine the concentration of the respective test compound in plasma (i.e., the plasma concentration of the respective test compound) using a LC-MS/MS system (Waters 2795 LC and Micromass Quattro Ultima). The singe-dose pharmacokinetic parameters of the respective test compound were calculated from the obtained concentration of the respective test compound in plasma (i.e., the obtained plasma concentration of the respective compound) at different time points using WinNonlin Standard Program (version 3.1, Pharsight Corp.)

[4] = tested on: tubulin; conditions: Huang Y. T. et al. (2005); cited from earlier work
[5] = tested on: MCF-7 (breast cancer cell); assay: MTT antiproliferative assay (cell growth %, GI50), MCF-7; assay type: cell-based; conditions: Homo sapiens, MCF7, 48 hours, MTT; for activity at 4000 µg/mL: 4 mg/ml; for activity at 20000 µg/mL: 20 mg/ml
Protocol: as §1, §2, §3

[6] = Determination of solubility in water; assay type: physicochemical; conditions: water, 25 °C, thermodynamic from solid; 25±0.1° C., stirred overnight, UV-VIS
Protocol: Determination of solubility in water was conducted substantially according to the method as described in Vougogiannopoulou, K. et al. (2008), J. Med. Chem., 51:6421-6431. An excess amount of the respective test compound was added into water, followed by sonication for 5 minutes. The resultant mixture was stirred at ambient temperature (25±0.1° C.) overnight. Centrifugation at 4000 rpm and 25° C. was conducted for 5 minutes. Absorbance of the sample of the respective test compound was measured at 315-420 nm using a UV-VIS spectrophotometer (JASCO UV-Visible V570). For each test compound, a standard curve was generated by plotting concentrations of standard solutions and the corresponding absorbances. The absorbance of the sample of each test compound was then converted to solubility in water (μg/mL) using the corresponding standard curve.

[7] = intravenous administration, 2 mg/kg

solubility [6] [µg/mL] | SMILES | activity at 4000 µg/mL [1] [%] | activity at 20000 µg/mL [1] [%] | Antiproliferative potency compared with amsacrine (m-AMSA) [2] | activity at 4000 µg/mL [5] [%] | activity at 20000 µg/mL [5] [%] | also measured
6 (≈ 19.8 µM) | CC(=O)c1ccc(Nc2c3ccccc3nc3occc23)cc1 [Compound 1, 1-(4-(furo[2,3-b]quinolin-4-ylamino)phenyl)ethanone, reference compound] | 33 | 30 | higher than that of amsacrine | 69 | 61 | AUC(0-inf) [3, 7]: 211 ng·h/mL; CL [3, 7]: 158 mL/min/kg; MRT [3, 7]: 6 min; Time after which compound was unable to be detected in plasma [3, 7]: 1.5 h; Vss [3, 7]: 1.2 L/kg; Vz [3, 7]: 4.1 L/kg; Cmax ([3]; intravenous administration, 2 mg/kg, extrapolated plasma concentration at 0 hr): 3064 ng/mL; t1/2 ([3]; intravenous administration, 2 mg/kg, from 0.5-1.5 hr (compd. 1) or 9-27 hr (13a, 14a)): 0.3^b hr; Bioavailability ([3]; oral 20 mg/kg versus intravenous 2 mg/kg): 2.1%; AUC(0-inf) ([3]; oral administration, 20 mg/kg): 45 ng·h/mL; Cmax ([3]; oral administration, 20 mg/kg): 21 ng/mL; MRT ([3]; oral administration, 20 mg/kg): 162 min; Time after which compound was unable to be detected in plasma ([3]; oral administration, 20 mg/kg): 6 h; Tmax ([3]; oral administration, 20 mg/kg): 18 min; t1/2 ([3]; oral administration, 20 mg/kg, from 2-6 hr (compd. 1), 2-24 hr (13a), 2-9 hr (14a)): 2.0^c hr; Effect on tubulin [4]: binding to tubulin and inhibiting tubulin polymerization
8 (≈ 24.1 µM) | CO/N=C(\C)c1ccc(Nc2c3ccccc3nc3occc23)cc1 [Compound 3, (E)-1-(4-(furo[2,3-b]quinolin-4-ylamino)phenyl)ethanone O-methyloxime, reference compound] | 51 | 23 | comparable to that of amsacrine | 63 | 37 | 
10 (≈ 31.5 µM) | C/C(=N\O)c1ccc(Nc2c3ccccc3nc3occc23)cc1 [Compound 2, (E)-1-(4-(furo[2,3-b]quinolin-4-ylamino)phenyl)ethanone oxime, reference compound] | 27 | 21 | comparable to that of amsacrine | 64 | 58 | 
